Measurements from patent USRE47193E1, “Selectively substituted quinoline compounds” (EISAI R&D MANAGEMENT CO., LTD., priority 2013, dated 2019).

What was measured:
[1] = molecular target: T1, mouse TLR7 (Mus musculus, UniProt P58681); experiment: Short-term in vivo (STIV) assay: oral dosing, R848 s.c., plasma IL-6; set-up: female BALB/c mice (Jackson Labs, Bar Harbor, Me.) were dosed by oral gavage; tissue Jackson Labs; host or cells: living female BALB/c mice; plasma IL-6 after s.c. R848; settings: 100 mg/kg
T1 sequence (P58681 27-1050): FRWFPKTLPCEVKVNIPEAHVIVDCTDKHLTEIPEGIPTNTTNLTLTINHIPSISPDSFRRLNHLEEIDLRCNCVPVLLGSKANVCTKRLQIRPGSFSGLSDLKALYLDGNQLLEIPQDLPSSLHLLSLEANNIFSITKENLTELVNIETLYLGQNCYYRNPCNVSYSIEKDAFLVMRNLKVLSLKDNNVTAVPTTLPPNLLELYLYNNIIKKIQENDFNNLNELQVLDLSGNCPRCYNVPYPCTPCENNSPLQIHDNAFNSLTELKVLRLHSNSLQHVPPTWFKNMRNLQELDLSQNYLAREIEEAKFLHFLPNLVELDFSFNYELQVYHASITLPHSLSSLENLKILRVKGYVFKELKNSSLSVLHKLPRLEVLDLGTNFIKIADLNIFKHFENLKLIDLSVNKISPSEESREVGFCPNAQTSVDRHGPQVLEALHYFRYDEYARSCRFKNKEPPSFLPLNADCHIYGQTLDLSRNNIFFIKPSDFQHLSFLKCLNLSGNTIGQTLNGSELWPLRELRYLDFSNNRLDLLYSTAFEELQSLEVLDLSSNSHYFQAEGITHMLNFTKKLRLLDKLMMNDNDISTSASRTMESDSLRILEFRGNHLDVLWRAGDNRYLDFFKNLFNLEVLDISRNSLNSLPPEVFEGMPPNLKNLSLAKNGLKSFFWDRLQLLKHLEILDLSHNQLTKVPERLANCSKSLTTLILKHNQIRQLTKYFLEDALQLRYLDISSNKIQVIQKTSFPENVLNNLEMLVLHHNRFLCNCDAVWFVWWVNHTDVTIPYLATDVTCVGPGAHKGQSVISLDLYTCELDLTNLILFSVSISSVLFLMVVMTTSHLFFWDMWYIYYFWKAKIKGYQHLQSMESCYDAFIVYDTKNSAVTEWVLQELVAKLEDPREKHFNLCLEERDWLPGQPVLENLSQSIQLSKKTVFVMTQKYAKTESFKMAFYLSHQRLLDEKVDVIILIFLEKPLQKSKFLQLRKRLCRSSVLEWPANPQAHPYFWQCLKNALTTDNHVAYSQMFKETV
Experimental: Figure Legend: Female BALB/c mice were dosed by oral gavage with Vehicle alone (0.5% aqueous methyl-cellulose) or compound formulated in Vehicle at 33 mg/kg, 100 mg/kg or 300 mg/kg. […] (FIG. 1A).
Short-term in vivo (STIV) assay: To assess compound potency in vivo against mouse TLR7, a short-term in vivo (STIV) assay was utilized. Briefly, mice were orally dosed with compounds and at various time points afterwards were injected subcutaneously with agonist R848 to stimulate TLR7. The plasma IL-6 level following R848 stimulation was then measured by ELISA to assess compound potency and duration-of-action.
Short-term in vivo (STIV) assay. Six to eight week old female BALB/c mice (Jackson Labs, Bar Harbor, Me.) were dosed by oral gavage in 200 ul volume with antagonist compounds formulated in 0.5% aqueous methyl-cellulose (Sigma, St. Louis, Mo.). At various time points afterwards, mice were injected subcutaneously (s.c.) in 100 ul volume with 15 ug R848 (Resiquimod; GLSynthesis, Worcester, Mass.) to stimulate TLR7.

[2] = test system: Human TLR7/8; experiment: Human PBMC cell-based assay, TLR7/8 stimulus (RNA-Ig), cytokine ELISA; settings: primary human PBMC assay, TLR7/8 potency; ligand not given; read-out: Human PBMCs IC50
Experimental: Human PBMC Cell-Based Assay. Human peripheral blood mononuclear cells (PBMC) were isolated from freshly-drawn heparinized (10 USP units/ml, Hospira, Lakeforest, Ill.) healthy donor whole blood by density gradient (Histopaque® 1077, Sigma, Inc., St. Louis, Mo.). Briefly, 25 ml blood was diluted with 15 ml PBS (without Ca^2+, Mg^2+) in a 50 ml conical tube, and 12 ml Histopaque was underlaid using a spinal needle. Tubes were centrifuged for 45 minutes at 1200 rpm (350×g), and PBMC were collected from the buffy coat. Cells were then washed twice in PBS, and red blood cells were lysed by suspension in 5 ml ammonium chloride solution (1× Red Blood Cell Lysis Buffer, eBioscience) for 5 minutes at room temperature. After a final wash in PBS, PBMC were resuspended at a final concentration of 2×10^6/ml in RPMI-1640 media with L-glutamine (Invitrogen) and supplemented with 25 mM HEPES (Mediatech, Inc, Manassas Va.), 10% fetal bovine serum (HyClone, Logan, Utah), and Penicillin-Streptomycin-Glutamine (Mediatech) and plated at 100 ul/well (2×10^5 cells/well) in tissue culture treated 96-well plates (Falcon).
Antagonist compounds solubilized and serial diluted in 100% DMSO were added in triplicate to cells to yield a final concentration of 0.1% DMSO (v/v). Hydroxychloroquine (Acros Organics) solubilized and serial diluted in PBS was added in triplicate to cells. PBMC were incubated with antagonist compounds or HCQ for 30 minutes at 37° C., 5% CO2 before adding various TLR agonist reagents in 100 ul complete media per well as follows (final concentrations indicated): R848 (Resiquimod; GLSynthesis, Worcester, Mass.) at 1 uM for TLR7 and TLR8, LPS (Sigma) at 10 ng/ml for TLR4, and CpG-2216 (InvivoGen) at 5 ug/ml for TLR9. To prepare a TLR7/8 agonist that mimics RNA-containing auto-antibody immune complexes in lupus patients, a 26-mer RNA with a sequence derived from human U1 snRNA stem loop IV [(sequence: […]-[…] (SEQ ID NO: 2) with phosphorothioate backbone] was synthesized (Dharmacon, Inc., Lafayette, Colo.), which has been shown previously to be a potent TLR7 and TLR8 agonist. This RNA molecule was diluted to 2.5 μM in serum-free RPMI, and mouse anti-human single stranded DNA monoclonal antibody (MAB3034, Millipore, Inc., Billerica, Mass.), which also cross-reacts with RNA, was added at a 1:25 dilution or at 1 ug/ml. The resulting “RNA-Ig” stimulus was incubated at room temperature for 15-30 minutes before adding to cells. PBMC were incubated with the various TLR agonists for 20 hours at 37° C., 5% CO2. Cell culture supernatants were collected, and levels of various human cytokines were assessed as indicated by standard ELISA procedure according to the manufacturer's recommended protocol (BD Biosciences, Inc., San Diego, Calif.). In a subsequent assay (Table 6) the ability of ER-899742 to block stimulation of normal PBMC by various TLR7/8 ligands, but not DNA-mediated activation of TLR9, was examined. In this assay cells were plated at 1×10^5 cells/well in 100 ul in 96-well plates.

Structure (SMILES) | IC50 [2] [nM] | other results
CNCC1CN(C(=O)[C@H]2CN(c3ccc(C#N)c4ncccc34)C[C@@H](C)O2)C1 [ER-899018] | 9 | % Suppression vs. Vehicle ([1]; 6 h): 73%; % Suppression vs. Vehicle ([1]; 13 h): 12%
CC1CN(c2ccc(C#N)c3ncccc23)CC(C(=O)NCC2CNCCO2)O1 (stereo not drawn) [ER-899278] | 1 | 
CC1CN(c2ccc(C#N)c3ncccc23)CC(CN2CCC(NC(=O)C(C)(C)C)CC2)O1 (stereo not drawn) [ER-889746] | 73 | 
CCc1cnc(NC[C@H]2CN(c3ccc(C#N)c4ncccc34)C[C@@H](C)O2)nc1 [ER-888701] | 18 | 
C[C@@H]1CN(c2ccc(C#N)c3ncccc23)C[C@H](CNc2ccc3cccnc3n2)O1 [ER-888289] | 11 | 
CCn1c(C)nc2cc(NC[C@H]3CN(c4ccc(C#N)c5ncccc45)C[C@@H](C)O3)ccc21 [ER-886609] | 4 | 
CC1CN(CC2CN(c3ccc(C#N)c4ncccc34)CC(C)O2)C(C)CN1 (stereo not drawn) [ER-887260] | 4 | 
Cc1nn(C)cc1S(=O)(=O)NC1CN(C[C@H]2CN(c3ccc(C#N)c4ncccc34)C[C@@H](C)O2)C1 [ER-894159] | 42 | 
C[C@@H]1CN(c2ccc(C#N)c3ncccc23)C[C@H](CNc2cccc(-c3ccccc3)n2)O1 [ER-887589] | 36 | 
Cc1cc(CN2CCN(C)CC2)cc(-c2ccc(C#N)c3ncccc23)c1 [ER-888647] | 12 | 
C[C@@H]1CN(c2ccc(C#N)c3ncccc23)C[C@H](CN2CC[C@H](N(C)C)C2)O1 [ER-894549] | 14 | 
CC1CN(c2ccc(C#N)c3ncccc23)CC(C(=O)NCC(F)(F)F)O1 (stereo not drawn) [ER-898563] | 122 | 
CC1CN(c2ccc(C#N)c3ncccc23)CC(C(=O)NCC2CN(C)CCO2)O1 (stereo not drawn) [ER-898707] | 2 | 
C[C@@H]1CCN(c2ccc(C#N)c3ncccc23)C[C@H](CN2CCC(N3CCCCC3)CC2)O1 [ER-889822] | 25 | 
CC1CN(c2ccc(C#N)c3ncccc23)CC(C(=O)N2CCC(N3CCCCC3)CC2)O1 (stereo not drawn) [ER-895477] | 13 | 
C[C@H]1CN(c2ccc(C#N)c3ncccc23)C[C@@H](CCl)O1 [ER-886134] | 277 | 
C[C@H]1CN(c2ccc(C#N)c3ncccc23)C[C@@H](CF)O1 [ER-886133] | 127 | 
CC1CN(c2ccc(C#N)c3ncccc23)CC(CN2CC(N3CCC(N)CC3)C2)O1 (stereo not drawn) [ER-892253] | 66 | 
CC(CO)NC(=O)C1CN(c2ccc(C#N)c3ncccc23)CC(C)O1 (stereo not drawn) [ER-897447] | 100 | 
CC(O)CNC(=O)C1CN(c2ccc(C#N)c3ncccc23)CC(C)O1 (stereo not drawn) [ER-897445] | 104 | 
CNCCNC(=O)C1CN(c2ccc(C#N)c3ncccc23)CC(C)O1 (stereo not drawn) [ER-899140] | 11 | 
CC1CN(CC2CN(c3ccc(C#N)c4ncccc34)CC(C)O2)CC(CO)O1 (stereo not drawn) [ER-888205] | 40 | 

Structure (SMILES) | IC50 [2] [nM] | other results
CC1CN(c2ccc(C#N)c3ncccc23)CC(CN2CC(N3CCN(C)CC3)C2)O1 (stereo not drawn) [ER-890108] | 9 | 
CC1CN(c2ccc(C#N)c3ncccc23)CC(C(=O)NCC2CNC2)O1 (stereo not drawn) [ER-899020] | 35 | 
CC1CN(c2ccc(C#N)c3ncccc23)CC(CN2CCCC2C)O1 (stereo not drawn) [ER-886856] | 111 | 
CC(C)C(=O)N[C@@H]1CCN(C[C@H]2CN(c3ccc(C#N)c4ncccc34)C[C@@H](C)O2)C1 [ER-890253] | 64 | 
C[C@@H]1CN(c2ccc(C#N)c3ncccc23)C[C@H](CNc2cc(-c3ccccc3)ccn2)O1 [ER-887252] | 2 | 
CC1CN(c2ccc(C#N)c3ncccc23)CC(COc2ccccn2)O1 (stereo not drawn) [ER-895324] | 1 | 
CC1CN(c2ccc(C#N)c3ncccc23)CC(CN2CCC(N3CCCC3)C2)O1 (stereo not drawn) [ER-889571] | 1000 | 
C[C@@H]1CN(c2ccc(C#N)c3ncccc23)C[C@H](CN2CC(NS(C)(=O)=O)C2)O1 [ER-894154] | 143 | 
CCC(CO)NC(=O)C1CN(c2ccc(C#N)c3ncccc23)CC(C)O1 (stereo not drawn) [ER-897827] | 39 | 
C[C@@H]1CN(c2ccc(C#N)c3ncccc23)C[C@H](CN2CC[C@H](NC(=O)c3ccccc3)C2)O1 [ER-894548] | 28 | 
CCC(O)CNC(=O)C1CN(c2ccc(C#N)c3ncccc23)CC(C)O1 (stereo not drawn) [ER-897922] | 64 | 
N#Cc1ccc(N2CCOC(CNc3ccccn3)C2)c2cccnc12 (stereo not drawn) [ER-887612] | 53 | 
C[C@@H]1CN(c2ccc(C#N)c3ncccc23)C[C@H](C(=O)NCCN(C)C)O1 [ER-899154] | 14 | 
COc1ccc(NC[C@H]2CN(c3ccc(C#N)c4ncccc34)C[C@@H](C)O2)nc1 [ER-886855] | 34 | 
CC1CN(c2ccc(C#N)c3ncccc23)CC(CN2CC(O)CC2CO)O1 (stereo not drawn) [ER-887262] | 103 | 
N#Cc1ccc(N2CCOC(CCl)C2)c2cccnc12 (stereo not drawn) [ER-879570] | 113 | 
Cc1nc2cc(NC[C@H]3CN(c4ccc(C#N)c5ncccc45)C[C@@H](C)O3)ccc2n1C [ER-886608] | 1 | 
C[C@@H]1CN(c2ccc(C#N)c3ncccc23)C[C@H](C(=O)NC2CC3CCC(C2)N3)O1 (stereo partly drawn) [ER-899416] | 431 | 
CC1CN(c2ccc(C#N)c3ncccc23)CC(C(=O)NCC2CN(C)CCO2)O1 (stereo not drawn) [ER-897945] | 2 | 
CC1CN(c2ccc(C#N)c3ncccc23)CC(C(=O)NCC2COC2)O1 (stereo not drawn) [ER-899121] | 142 | 
CC(=O)N1CCC(C2CCN(CC3CN(c4ccc(C#N)c5ncccc45)CC(C)O3)CC2)CC1 (stereo not drawn) [ER-890113] | 22 | 
